Experimental data reported in US11065266B2, “Method of treating melanoma using an inhibitor of an atypical protein kinase C” (UNIVERSITY OF SOUTH FLORIDA, priority 2016, dated 2021).

Tests used:
Assay type in all cases: cell-based, human
SK-MEL-2 cells [1] = experiment: Western blot of protein levels; set-up: reduction of PKC-ι level / reduction of pPKC-ι level / reduction of PKC-ζ level / reduction of pPKC-ζ level: concentration or dose not given beside the values; settings: for reduction of PKC-ζ level / reduction of PKC-ι level / reduction of pPKC-ζ level / reduction of pPKC-ι level: vs respective control
Procedure: Approximately 2×10^5 cells from PCS-200-013 and SK-MEL-2 cell lines were plated in T25 flasks until they become 70% confluent. Confluent cells were semi-synchronized by contact inhibition and serum starvation for 48 hrs. Subsequently, cells were incubated with serum and atypical inhibitors. The cells were removed at specific times and were placed in ice to terminate the incubation. Cells were washed at least two times with ice cold DPBS. Cells were then scrapped, re-suspended and sonicated in 500 μL of homogenization buffer (50 mM HEPES—pH 7.5), 150 mM NaCl, 0.1% Triton X, 1 mM EDTA (ethylenediaminetetraacetic acid), 2 mM EGTA [glycol-bis (2-aminoethylether)-N, N, N′,N′-tetraacetic acid], 0.1 mM orthovanadate, 1 mM NaF, 2 mM PMSF (phenylmethylsulphonylfluoride), 1 mM DTT (dithiothreitol) and 0.15 U/mL aprotinin. Cell suspensions was then sonicated and centrifuged at 100,000 g for 30 minutes. The protein concentrations was determined using Bradford method. Subsequently, approximately 800 μg of proteins were immunoprecipitated with the antibody against desired protein. In some cases cell lysates were suspended with anti-HFS-1 antibody, rocking overnight at 4° C. Agarose beds were added after 24 hrs. Then the complex of cell lysate-anti HSF-1 antibody-agarose beads was rocked at 4° C. for 2 hrs. After washing the beads, approximately […] the sample loading buffer was added to dissolve all the protein on the beads. Proteins were then separated on sodium dodecyl sulfate polyacrylamide gel electrophoresis (SDS-PAGE) and transblotted followed by immunoblotting with anti-PKC-ζ or anti-PKC-ι or anti-HSF-1 antibody or phosphospecific antibodies. Immunoreactive bands were visualized with enhanced chemiluminescence. […]
(§1) Western blots (WB) were performed to investigate the effect of ACPD and DNDA on the expression of aPKCs on malignant melanoma. […] DNDA decreased the levels of PKC-ι by 52%, pPKC-ι by 33% in SK-MEL-2 cells and by 27% of PKC-ι and pPKC-ι by 20% in MeWo cells.
(§2) DNDA reduced the levels of PKC-ζ by 33%, pPKC-ζ by only 17% in SK-MEL-2 cells and by 60% of PKC-ζ and pPKC-ζ by 29% in MeWo cells. All values (percent) were calculated compared to their respective control in Western blot. B-actin was used as the internal control to ensure that equal amounts of proteins were loaded in each lane in SDS-PAGE.

MeWo cells [2] = experiment: Western blot of protein levels; set-up: concentration or dose not given beside the values; settings: vs respective control
Procedure: Approximately 2×10^5 cells from PCS-200-013 and SK-MEL-2 cell lines were plated in T25 flasks until they become 70% confluent. Confluent cells were semi-synchronized by contact inhibition and serum starvation for 48 hrs. Subsequently, cells were incubated with serum and atypical inhibitors. The cells were removed at specific times and were placed in ice to terminate the incubation. Cells were washed at least two times with ice cold DPBS. Cells were then scrapped, re-suspended and sonicated in 500 μL of homogenization buffer (50 mM HEPES—pH 7.5), 150 mM NaCl, 0.1% Triton X, 1 mM EDTA (ethylenediaminetetraacetic acid), 2 mM EGTA [glycol-bis (2-aminoethylether)-N, N, N′,N′-tetraacetic acid], 0.1 mM orthovanadate, 1 mM NaF, 2 mM PMSF (phenylmethylsulphonylfluoride), 1 mM DTT (dithiothreitol) and 0.15 U/mL aprotinin. Cell suspensions was then sonicated and centrifuged at 100,000 g for 30 minutes. The protein concentrations was determined using Bradford method. Subsequently, approximately 800 μg of proteins were immunoprecipitated with the antibody against desired protein. In some cases cell lysates were suspended with anti-HFS-1 antibody, rocking overnight at 4° C. Agarose beds were added after 24 hrs. Then the complex of cell lysate-anti HSF-1 antibody-agarose beads was rocked at 4° C. for 2 hrs. After washing the beads, approximately […] the sample loading buffer was added to dissolve all the protein on the beads. Proteins were then separated on sodium dodecyl sulfate polyacrylamide gel electrophoresis (SDS-PAGE) and transblotted followed by immunoblotting with anti-PKC-ζ or anti-PKC-ι or anti-HSF-1 antibody or phosphospecific antibodies. Immunoreactive bands were visualized with enhanced chemiluminescence.
as §1, §2

MeWo cells [3] = experiment: BME invasion assay (Calcein-AM fluorescence); settings: 2.5 μM, vs control
Procedure: (§3) This invasion assay was performed to investigate the effect of ACPD and DNDA on malignant melanoma cell invasion in vitro. Even though it is similar to the Boyden chamber assay, it avoids scraping off the Matrigel and staining to assess migrated number of cells through filter. […] Migrated cells were stained with a fluorescent marker, Calcein-AM. Live cells cleave the ester (AM) of the molecule in order to produce fluorescence. Thus, the amount of fluorescence accumulated in the bottom chamber is proportional to the number of invaded cells. The relative fluorescent units (excitation at 485 and emission at 528 nm) after 2 h exposure were reported for inhibitor treatments for both SK-MEL-2 and MeWo cell lines compared to controls (FIG. 8D).

SK-MEL-2 cells [4] = experiment: BME invasion assay (Calcein-AM fluorescence); settings: 2.5 μM, vs control
Procedure: as §3

[5] = upon increasing concentration, vs control

Row | SMILES | decrease of Bcl-2 levels (SK-MEL-2 cells [1]) [%] | decrease of CD44 (SK-MEL-2 cells [1]) [%] | decrease of Vimentin levels (SK-MEL-2 cells [1]) [%] | decrease of β-catenin (SK-MEL-2 cells [1]) [%] | increase of Caspase-3 levels (SK-MEL-2 cells [1]) [%] | increase of E-cadherin levels (SK-MEL-2 cells [1]) [%] | increase of NF-KB p65 levels (SK-MEL-2 cells [1]) [%] | increase of cleaved PARP levels (SK-MEL-2 cells [1]) [%] | reduction of PKC-ζ level (SK-MEL-2 cells [1]) [%] | reduction of PKC-ι level (SK-MEL-2 cells [1]) [%] | reduction of pPKC-ζ level (SK-MEL-2 cells [1]) [%] | reduction of pPKC-ι level (SK-MEL-2 cells [1]) [%] | reduction of PKC-ζ level (MeWo cells [2]) [%] | reduction of PKC-ι level (MeWo cells [2]) [%] | reduction of pPKC-ζ level (MeWo cells [2]) [%] | reduction of pPKC-ι level (MeWo cells [2]) [%] | reduction of invasion (MeWo cells [3]) [%] | reduction of invasion (SK-MEL-2 cells [4]) [%] | other results
1 | CC(=O)C1=C(O)CCC1=O [ACPD, 2-acetyl-1,3-cyclopentanedione] | 13 | 19 | 51 | 39 | 26 | 18 | 31 | 14 | 42 | 43 | 29 | 31 | 42 | 46 | 23 | 26 | 21 | 24 | decrease of PARP levels (SK-MEL-2 cells [1]): 33%; PKC-ζ level (SK-MEL-2 cells [1]; [5]): decreased; PKC-ι level (SK-MEL-2 cells [1]; [5]): good decrease
2 | Nc1c(S(=O)(=O)O)cc2cc(S(=O)(=O)O)ccc2c1N [DNDA, 3,4-diamino-2,7-naphthalenedisulfonic acid] | 7 | 27 | 49 | 13 | 32 | 28 | 49 | 16 | 33 | 52 | 17 | 33 | 60 | 27 | 29 | 20 | 32 | 32 | increase of PARP levels (SK-MEL-2 cells [1]): 12%
